Measurements reported in patent publication US12391737B2, “Soluble NPY2 receptor agonists” (Boehringer Ingelheim International GmbH, priority 2020, dated 2025).

Tests used:
[1] = molecular target: T1, Human Neuropeptide Y2 Receptor (Homo sapiens, UniProt P49146); experiment: Radioligand binding competition assay (RLB); details: Table 3, 125I-PYY(1-36) competition; read-out: Ki
T1 construct: purchased CHEMICON HTS066M
T1 sequence (P49146 1-381): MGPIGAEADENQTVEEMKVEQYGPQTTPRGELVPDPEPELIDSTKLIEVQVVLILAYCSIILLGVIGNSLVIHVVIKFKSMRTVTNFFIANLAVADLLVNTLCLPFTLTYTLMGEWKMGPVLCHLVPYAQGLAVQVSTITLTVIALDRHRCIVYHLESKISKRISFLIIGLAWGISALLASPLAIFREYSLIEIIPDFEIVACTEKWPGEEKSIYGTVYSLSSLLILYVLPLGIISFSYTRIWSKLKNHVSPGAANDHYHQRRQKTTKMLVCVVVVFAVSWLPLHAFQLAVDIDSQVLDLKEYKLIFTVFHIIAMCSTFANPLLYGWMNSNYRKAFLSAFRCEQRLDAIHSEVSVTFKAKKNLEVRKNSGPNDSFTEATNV
In short: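 Displacement of radioligand is measured after 2 h at room temperature with receptor membranes in Mg2+/Ca2+ HEPES buffer, pH 7.4. Filter-bound radioactivity is counted and IC50 obtained from curve fitting.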

[2] = Solubility determination; details: for Sol6: pH 6; for Sol7: pH 7
In short: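 Shake-flask style: 10 mg/ml peptide (TFA salt), 0.1 M sodium diphosphate pH 6.4/7.0, 600 rpm, 2 h, RT; filter; dilute 1 mg/ml in 50% MeCN; RP-UPLC, 0–100% B over 2 min, 50 °C. Solubility = sample/control area ratio. Final pH recorded.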

## CC(C)CC(=O)N[C@@H](C)C(=O)N1CCC[C@H]1C(=O)N[C@@H](CCC(=O)O)C(=O)N[C@@H](CCCCNC(=O)CCCCCNC(=O)CC[C@H](NC(=O)CCCCCCCCCCCCCCCCC(=O)O)C(=O)O)C(=O)N1CCC[C@H]1C(=O)N[C@@H](CCC(=O)O)C(=O)N[C@@H](CCC(=O)O)C(=O)N[C@@H](CC(=O)O)C(=O)N[C@@H](C)C(=O)N[C@H](C(=O)N1CCC[C@H]1C(=O)N[C@@H](CCC(=O)O)C(=O)N[C@@H](CCC(=O)O)C(=O)N[C@@H](CCC(=O)O)C(=O)N[C@@H](CCC(N)=O)C(=O)N[C@@H](CCCNC(=N)N)C(=O)N[C@@H](Cc1ccc(O)cc1)C(=O)N[C@@H](Cc1ccc(O)cc1)C(=O)N[C@H](C(=O)N[C@@H](CO)C(=O)N[C@@H](CC(C)C)C(=O)N[C@@H](CCCNC(=N)N)C(=O)N[C@@H](Cc1c[nH]cn1)C(=O)N[C@@H](Cc1ccc(O)cc1)C(=O)N[C@@H](Cc1ccc(O)cc1)C(=O)N[C@@H](CC(N)=O)C(=O)N[C@@H](Cc1c[nH]c2ccccc12)C(=O)N[C@@H](CC(C)C)C(=O)N[C@H](C(=O)N[C@@H](CCCNC(=N)N)C(=O)N[C@@H](CCC(N)=O)C(=O)N[C@@H](CCCNC(=N)N)C(=O)N[C@@H](Cc1ccc(O)cc1)C(N)=O)[C@@H](C)O)C(C)C)[C@@H](C)O [Compound 162, N{alpha-4}-(3-methylbutanoyl)-N{epsilon-7}-(6-[(4S)-4-carboxy-4-(17-carboxyheptadecanamido)butanamido]hexanoyl)-[4A,7K,9E,13T,17E,18Q,22V,28Y,30W,31L]-hPYY(4-36)]
[1]
  Ki: 14.9 nM
[2]
  Sol6: 9.0 mg/mL
  Sol7: 9.3 mg/mL

## CC(C)CC(=O)N[C@@H](C)C(=O)N1CCC[C@H]1C(=O)N[C@@H](CCC(=O)O)C(=O)N[C@@H](CCCCNC(=O)CCCCCNC(=O)CC[C@H](NC(=O)CCCCCCCCCCCCCCCCC(=O)O)C(=O)O)C(=O)N1CCC[C@H]1C(=O)N[C@@H](CCC(=O)O)C(=O)N[C@@H](CCC(=O)O)C(=O)N[C@@H](CO)C(=O)N[C@@H](C)C(=O)N[C@H](C(=O)N1CCC[C@H]1C(=O)N[C@@H](CCC(=O)O)C(=O)N[C@@H](CCC(=O)O)C(=O)N[C@@H](CC(C)C)C(=O)N[C@@H](CCC(N)=O)C(=O)N[C@@H](CCCNC(=N)N)C(=O)N[C@@H](Cc1ccc(O)cc1)C(=O)N[C@@H](Cc1ccc(O)cc1)C(=O)N[C@H](C(=O)N[C@@H](CO)C(=O)N[C@@H](CC(C)C)C(=O)N[C@@H](CCCNC(=N)N)C(=O)N[C@@H](Cc1c[nH]cn1)C(=O)N[C@@H](Cc1ccc(O)cc1)C(=O)N[C@@H](Cc1ccc(O)cc1)C(=O)N[C@@H](CC(N)=O)C(=O)N[C@@H](Cc1c[nH]c2ccccc12)C(=O)N[C@@H](CC(C)C)C(=O)N[C@H](C(=O)N[C@@H](CCCNC(=N)N)C(=O)N[C@@H](CCC(N)=O)C(=O)N[C@@H](CCCNC(=N)N)C(=O)N[C@@H](Cc1ccc(O)cc1)C(N)=O)[C@@H](C)O)C(C)C)[C@@H](C)O [Compound 96, N{alpha-4}-(3-methylbutanoyl)-N{epsilon-7}-(6-[(4S)-4-carboxy-4-(17-carboxyheptadecanamido)butanamido]hexanoyl)-[4A,7K,9E,11S,13T,18Q,22V,28Y,30W,31L]-hPYY(4-36)]
[1]
  Ki: 3.06 nM
[2]
  Sol6: 8.8 mg/mL
  Sol7: 8.7 mg/mL
